Columns and labels:
[1] = tested on: caterpillars of the army worm (Spodoptera frugiperda); assay: Spodoptera frugiperda test (SPODFR spray treatment); format: in vivo; settings: for Kill rate after 7d in %: spray treatment
Description: Spodoptera frugiperda Test (SPODFR Spray Treatment) Solvents: 78 parts by weight of acetone • • 1.5 parts by weight of dimethylformamide Emulsifier: 0.5 part by weight of alkylaryl polyglycol ether To produce a suitable preparation of active compound, 1 part by weight of active compound is mixed with the stated amounts of solvents and emulsifier and the concentrate is diluted with emulsifier-containing water to the desired concentration. Discs of maize leaves (Zea mays) are sprayed with an active compound preparation of the desired concentration and after drying populated with caterpillars of the army worm (Spodoptera frugiperda). After the desired period of time, the activity in % is determined. 100% means that all of the caterpillars have been killed; 0% means that none of the caterpillars have been killed.

[2] = logP determination by HPLC (reversed-phase C18), EEC Directive 79/831 Annex V.A8; format: physicochemical; settings: HPLC reversed-phase C18, 43° C., acidic range pH 2.7
Description: The logP values given in the tables and Preparation Examples above are determined in accordance with EEC Directive 79/831 Annex V.A8 by HPLC (High Performance Liquid Chromatography) on a reversed-phase column (C 18). Temperature: 43° C. The determination by LC-MS in the acidic range is carried out at pH 2.7 using 0.1% aqueous formic acid and acetonitrile (contains 0.1% formic acid) as mobile phases; linear gradient from 10% acetonitrile to 95% acetonitrile. Calibration is carried out using unbranched alkan-2-ones (having 3 to 16 carbon atoms) with known logP values (determination of the logP values by the retention times using linear interpolation between two successive alkanones).

Myzus persicae = Myzus persicae test (ingestion of active compound preparation); format: in vivo; settings: for Kill rate after 6-7d in %: 30 ppm, ingestion
Description: (§1) Myzus persicae Test Solvents: 1% of N-methylpyrrolidone (NMP) • 1% of diacetone alcohol Dye: brilliant sulphoflavin for staining the water To produce a suitable preparation of active compound, the active compound is mixed with the stated amounts of solvents and the concentrate is diluted with stained water to the desired concentration. The Myzus persicae are provided with an active compound preparation of the desired concentration for ingestion. After the desired period of time, the activity in % is determined. 100% means that all aphids have been killed; 0% means that none of the aphids have been killed.

Heliothis virescens = Heliothis virescens test (eggs); format: in vivo; settings: for Kill rate after 6-7d in %: 300 ppm, eggs
Description: as §1, with “Heliothis virescens” for “Myzus persicae Test”, “eggs (Heliothis virescens)” for “Myzus persicae”, “treated” for “provided”, “concentration.” for “concentration for ingestion.”, “animals” for “aphids”

[3] = tested on: caterpillars of the cotton bollworm (Heliothis armigera); assay: Heliothis armigera test (leaf dip); format: in vivo; settings: for Kill rate after 7d in %: 20 ppm
Description: (§2) Heliothis armigera Test Solvent: 7 parts by weight of dimethylformamide Emulsifier: 2 parts by weight of alkylaryl polyglycol ether To produce a suitable preparation of active compound, 1 part by weight of active compound is mixed with the stated amounts of solvent and emulsifier and the concentrate is diluted with emulsifier-containing water to the desired concentration. Soya bean leaves (Glycine max.) are treated by being dipped into the active compound preparation of the desired concentration and populated with caterpillars of the cotton bollworm (Heliothis armigera) while the leaves are still moist. After the desired period of time, the kill in % is determined. 100% means that all caterpillars have been killed; 0% means that none of the caterpillars have been killed.

[4] = tested on: Spodoptera frugiperda larvae; assay: Spodoptera frugiperda test (treatment by watering); format: in vivo; settings: for Kill rate after 14d in %: 20 ppm, treatment by watering
Description: Spodoptera frugiperda Test Solvent: 7 parts by weight of dimethylformamide Emulsifier: 2 parts by weight of alkylaryl polyglycol ether To produce a suitable preparation of active compound, 1 part by weight of active compound is mixed with the stated amounts of solvent and emulsifier and the concentrate is diluted with water to the desired concentration. Maize plants (Zea mays) are watered with an active compound preparation of the desired concentration and infected with Spodoptera frugiperda larvae. After the desired period of time, the kill in % is determined. 100% means that all larvae have been killed; 0% means that none of the larvae have been killed.

[5] = tested on: Diabrotica undecimpunctata; assay: Diabrotica undecimpunctata (DIABUN) test (eggs); format: in vivo; settings: for Kill rate after 2-5d in %: 300 ppm, eggs
Description: as §1, with “Diabrotica undecimpunctata (DIABUN)” for “Myzus persicae Test”, “eggs (Diabrotica undecimpunctata)” for “Myzus persicae”, “treated” for “provided”, “concentration.” for “concentration for ingestion.”, “animals” for “aphids”

[6] = tested on: larvae of the mustard beetle (Phaedon cochleariae); assay: Phaedon test (sprayed Chinese cabbage discs); format: in vivo
Description: Phaedon Test Solvents: 78 parts by weight of acetone • • 1.5 parts by weight of dimethylformamide Emulsifier: 0.5 part by weight of alkylaryl polyglycol ether To produce a suitable preparation of active compound, 1 part by weight of active compound is mixed with the stated amounts of solvents and emulsifier and the concentrate is diluted with emulsifier-containing water to the desired concentration. Discs of Chinese cabbage (Brassica pekinensis) are sprayed with an active compound preparation of the desired concentration and, after drying, populated with larvae of the mustard beetle (Phaedon cochleariae). After the desired period of time, the activity in % is determined. 100% means that all beetle larvae have been killed; 0% means that none of the beetle larvae have been killed.

[7] = tested on: Spodoptera exigua, resistant strain; assay: Spodoptera exigua test; resistant strain; format: in vivo
Description: Spodoptera exigua Test; Resistant Strain
Solvent: 7 parts by weight of dimethylformamide
Emulsifier: 2 parts by weight of alkylaryl polyglycol ether
To produce a suitable preparation of active compound, 1 part by weight of active compound is mixed with the stated amounts of solvent and emulsifier and the concentrate is diluted with emulsifier-containing water to the desired concentration.
Cabbage leaves (Brassica oleracea) are treated by being dipped into the active compound preparation of the desired concentration and populated with caterpillars of the army worm (Spodoptera exigua, resistant strain) while the leaves are still moist.
After the desired period of time, the kill in % is determined. 100% means that all caterpillars have been killed; 0% means that none of the caterpillars have been killed.

[8] = tested on: green peach aphid (Myzus persicae); assay: Myzus test; oral; format: in vivo
Description: Myzus Test; Oral Solvent: 80 parts by weight of acetone To produce a suitable preparation of active compound, 1 part by weight of active compound is mixed with the stated amounts of solvent and the concentrate is diluted with water to the desired concentration. Vessels are populated with all stages of the green peach aphid (Myzus persicae) which are treated by sucking the active compound preparation of the desired concentration. After the desired period of time, the activity in % is determined. 100% means that all aphids have been killed; 0% means that none of the aphids have been killed.

[9] = tested on: caterpillars of the army worm (Spodoptera exigua); assay: Spodoptera exigua test (leaf dip); format: in vivo
Description: as §2, with “Spodoptera exigua” for “Heliothis armigera”, “Cabbage” for “Soya bean”, “(Brassica oleracea)” for “(Glycine max.)”, “army worm (Spodoptera exigua)” for “cotton bollworm (Heliothis armigera)”

[10] = tested on: caterpillars of the diamondback moth (Plutella xylostella); assay: Plutella test (leaf dip); format: in vivo
Description: as §2, with “Plutella” for “Heliothis armigera”, “Cabbages” for “Soya bean”, “(Brassica oleracea)” for “(Glycine max.)”, “diamondback moth (Plutella xylostella)” for “cotton bollworm (Heliothis armigera)”

SMILES	activity in the Spodoptera frugiperda test, spray treatment (in words) [1]	Kill rate after 7d in % ([1]; 100 g/ha)	logP [2]	activity in the Myzus persicae test (in words) (Myzus persicae)	Kill rate after 6-7d in % (Myzus persicae)	activity in the Heliothis virescens test (in words) (Heliothis virescens)	Kill rate after 6-7d in % (Heliothis virescens)	activity in the Heliothis armigera test (in words) [3]	Kill rate after 7d in % [3]	activity in the Spodoptera frugiperda test, watering (in words) [4]	Kill rate after 14d in % [4]	activity in the Diabrotica undecimpunctata test (in words) [5]	Kill rate after 2-5d in % [5]	activity in the Phaedon test (in words) [6]	Kill rate after 7d in % ([6]; 100 g/ha)	other results
Cc1cccc(C2=NOCCO2)c1NC(=O)c1cc(Cl)nn1-c1ncccc1Cl [Example I-1-7]	good activity	100%	2.54	good activity	100%	good activity	100%									
Cc1cc(Cl)cc(C2=NOCCO2)c1NC(=O)c1cc(Cl)nn1-c1ncccc1Cl [Example I-1-9]	good activity	100%	3.08	good activity	100%	good activity	100%	good activity	80%	good activity	95%	good activity	100%	good activity	100%	
Cc1cc(Cl)cc(C2=NOCCO2)c1NC(=O)c1cc(Br)nn1-c1ncccc1Cl [Example I-1-5]	good activity	100%	3.13									good activity	100%	good activity	83%	
O=C(Nc1c(Cl)cc(Cl)cc1C1=NOCCO1)c1cc(C(F)(F)F)nn1-c1cccc(Cl)n1 [Example I-1-1]	good activity							good activity	100%	good activity	95%			good activity		Kill rate after 7d in % ([1]; 500 g/ha): 100%; activity in the Spodoptera exigua test, resistant strain (in words) [7]: good activity; Kill rate after 7d in % ([7]; 100 ppm, 7 d, resistant strain): 100%; activity in the Myzus test, oral (in words) [8]: good activity; activity in the Spodoptera exigua test (in words) [9]: good activity; Kill rate after 7d in % ([9]; 20 ppm, 7 d): 100%; activity in the Plutella test (in words) [10]: good activity; Kill rate after 7d in % ([10]; 100 ppm, 7 d): 100%; Kill rate after 7d in % ([6]; 500 g/ha): 100%

Reference: patent US8062995B2, “Dioxazine-substituted arylamides” (Bayer CropScience AG, priority 2005, dated 2011)
